Measurements taken from ChEMBL document CHEMBL1201862, “PubChem BioAssay data set” (2004).
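How tested: cells in 96-well plates exposed to compound for 48 hours at five concentrations. GI50 = concentration required for 50% inhibition of growth.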 Calls of active or inactive are those of the source. Cut-off read from the data, not from the text of the source: active = GI50 up to about 1.1 µM and inactive = higher. Starred links: 1 amine or outer side, 2 acyl side, 3 side chain; linkers in the order of their positions; H or OH if unused. Positions of bridges follow the written chain, without caps; N, C: chain ends. Non-standard residues stand in square brackets, D forms with d. Residues, ends and D or L forms follow the SMILES beside them. Chains are numbered I, II in the order given. Actinocin(9to1) = Cc1c2oc3c(C)ccc(C(=O)[*:1])c3nc-2c(C(=O)[*:2])c(N)c1=O; NMeV = CN[CH](C(=O)O)C(C)C; Sar = CNCC(=O)O

Legend:
Assay in all cases: NCI tumour cell line growth inhibition, 48 h
DU-145 = test system: DU-145
PC-3 = test system: PC-3
Malme-3M = test system: Malme-3M
SF-539 = test system: SF-539
UO-31 = test system: UO-31
U-251 = test system: U-251
HOP-92 = test system: HOP-92
RXF 393 = test system: RXF 393
MOLT-4 = test system: MOLT-4
SK-MEL-5 = test system: SK-MEL-5
SW-620 = test system: SW-620
CAKI-1 = test system: CAKI-1
HL-60 = test system: HL-60
UACC-257 = test system: UACC-257
K562 = test system: K562
HCC 2998 = test system: HCC 2998
EKVX = test system: EKVX
UACC-62 = test system: UACC-62
786-0 = test system: 786-0
SR = test system: SR

SMILES	GI50 (DU-145)	GI50 (PC-3)	GI50 (Malme-3M)	GI50 (SF-539)	GI50 (UO-31)	GI50 (U-251)	GI50 (HOP-92)	GI50 (RXF 393)	GI50 (MOLT-4)	GI50 (SK-MEL-5)	GI50 (SW-620)	GI50 (CAKI-1)	GI50 (HL-60)	GI50 (UACC-257)	GI50 (K562)	GI50 (HCC 2998)	GI50 (EKVX)	GI50 (UACC-62)	GI50 (786-0)	GI50 (SR)
COC(=O)C1C(C(=O)OC)N(Cc2ccccc2)C(=O)N1Cc1ccccc1 (stereo not drawn)	> 100 µM (inactive)	> 100 µM (inactive)	> 100 µM (inactive)	> 100 µM (inactive)	87.7 µM (inactive)	> 100 µM (inactive)	> 100 µM (inactive)	> 100 µM (inactive)	22.8 µM (inactive)	58.5 µM (inactive)	> 100 µM (inactive)	99.5 µM (inactive)	13.3 µM (inactive)	76 µM (inactive)	45.6 µM (inactive)	> 100 µM (inactive)	> 100 µM (inactive)	64.6 µM (inactive)		
CN1C(C)(C)CC(=O)C(Br)C1(C)C (stereo not drawn)	> 100 µM (inactive)	> 100 µM (inactive)	> 100 µM (inactive)		> 100 µM (inactive)	> 100 µM (inactive)	> 100 µM (inactive)		> 100 µM (inactive)	> 100 µM (inactive)	> 100 µM (inactive)	> 100 µM (inactive)	> 100 µM (inactive)	> 100 µM (inactive)	> 100 µM (inactive)		> 100 µM (inactive)	> 100 µM (inactive)	> 100 µM (inactive)	> 100 µM (inactive)
COC(O)C(=O)c1c2c(cc3c1CCC3)CCCC2 (stereo not drawn)	14.1 µM (inactive)	4.32 µM (inactive)	14 µM (inactive)	4.32 µM (inactive)	17.7 µM (inactive)	14 µM (inactive)			3.38 µM (inactive)	4.47 µM (inactive)	3.44 µM (inactive)	14.7 µM (inactive)	1.56 µM (inactive)	12.6 µM (inactive)	3.07 µM (inactive)	1.97 µM (inactive)	16.7 µM (inactive)	3.47 µM (inactive)	14.1 µM (inactive)	4 µM (inactive)
CCC(C(=O)c1ccc(OC)c(OC)c1)N(C(=O)C(F)(F)F)C(C)c1ccccc1 (stereo not drawn)	> 100 µM (inactive)	> 100 µM (inactive)	> 100 µM (inactive)		> 100 µM (inactive)	> 100 µM (inactive)			> 100 µM (inactive)	> 100 µM (inactive)	> 100 µM (inactive)	> 100 µM (inactive)	> 100 µM (inactive)	> 100 µM (inactive)	> 100 µM (inactive)	> 100 µM (inactive)	> 100 µM (inactive)	> 100 µM (inactive)		> 100 µM (inactive)
Cc1nc2[nH]ncn2c(=O)c1CCCl	> 10 µM (inactive)	> 10 µM (inactive)	> 10 µM (inactive)	> 10 µM (inactive)	> 10 µM (inactive)	> 10 µM (inactive)		> 10 µM (inactive)	> 10 µM (inactive)	> 10 µM (inactive)	> 10 µM (inactive)	> 10 µM (inactive)	> 10 µM (inactive)		> 10 µM (inactive)	> 10 µM (inactive)	> 10 µM (inactive)	> 10 µM (inactive)		> 10 µM (inactive)
C=C1C(=O)O[C@H]2C/C(C=O)=C\[C@H]3O[C@H]3/C(COC(=O)C(C)C)=C/CC12 (stereo partly drawn)	11.1 µM (inactive)	1.85 µM (inactive)	10.3 µM (inactive)	21.5 µM (inactive)	5.58 µM (inactive)	7.26 µM (inactive)		3.49 µM (inactive)	3.06 µM (inactive)	9.42 µM (inactive)	2.52 µM (inactive)	2.65 µM (inactive)	2.11 µM (inactive)	11.1 µM (inactive)	2.9 µM (inactive)	13.4 µM (inactive)	16.3 µM (inactive)	2.2 µM (inactive)	2.9 µM (inactive)	2.3 µM (inactive)
COc1cc2c(cc1OC)C1C(O)C(OC)C(Br)C3(Br)CCN(C2)C13 (stereo not drawn)	> 100 µM (inactive)	> 100 µM (inactive)	42.6 µM (inactive)	> 100 µM (inactive)	> 100 µM (inactive)	47.1 µM (inactive)	15.1 µM (inactive)	18.5 µM (inactive)	54 µM (inactive)	> 100 µM (inactive)	> 100 µM (inactive)	> 100 µM (inactive)	> 100 µM (inactive)	> 100 µM (inactive)		70.3 µM (inactive)	> 100 µM (inactive)	> 100 µM (inactive)	> 100 µM (inactive)	
CCOC(=O)Cn1nnc2cc(Nc3c(C)[n+]([O-])c4cc(F)c(OCC)cc4[n+]3[O-])ccc21	> 100 µM (inactive)	> 100 µM (inactive)		> 100 µM (inactive)	> 100 µM (inactive)	32.5 µM (inactive)	13.6 µM (inactive)	31.8 µM (inactive)	0.273 µM (active)	> 100 µM (inactive)	> 100 µM (inactive)	> 100 µM (inactive)	> 100 µM (inactive)	> 100 µM (inactive)	7.16 µM (inactive)		> 100 µM (inactive)		43.4 µM (inactive)	
Cn1c(CO)ccc1-c1ccc(-c2ccc(CO)[se]2)[se]1	12.9 µM (inactive)	18.2 µM (inactive)	4.15 µM (inactive)	67 µM (inactive)	> 100 µM (inactive)	0.528 µM (active)		> 26.2 µM (inactive)	3.76 µM (inactive)	2.28 µM (inactive)	1.58 µM (inactive)	0.0176 µM (active)	7.91 µM (inactive)	0.192 µM (active)	1.35 µM (inactive)	0.705 µM (active)	48.1 µM (inactive)	6.95 µM (inactive)	9.04 µM (inactive)	13.1 µM (inactive)
CC(C)CC(C(N)=O)C(=O)NC(Cc1ccccc1)NC(=O)CNC(=O)C(C)NC(=O)C(N)Cc1ccc(O)cc1 (stereo not drawn)	> 100 µM (inactive)	> 100 µM (inactive)	> 100 µM (inactive)	> 100 µM (inactive)	> 100 µM (inactive)	> 100 µM (inactive)		> 100 µM (inactive)	> 100 µM (inactive)	> 100 µM (inactive)	> 100 µM (inactive)	> 100 µM (inactive)	> 100 µM (inactive)	> 100 µM (inactive)	> 100 µM (inactive)	> 100 µM (inactive)	> 100 µM (inactive)	> 100 µM (inactive)	> 100 µM (inactive)	> 100 µM (inactive)
O=C1CCc2ccc3c(c21)CC1(Cc2ccccc2C1)C3	13 µM (inactive)	8.73 µM (inactive)	10.5 µM (inactive)	5.45 µM (inactive)	3.45 µM (inactive)	8.05 µM (inactive)	5.96 µM (inactive)		3.8 µM (inactive)	3.38 µM (inactive)	4.47 µM (inactive)	5.24 µM (inactive)	2.11 µM (inactive)	5.48 µM (inactive)		14.4 µM (inactive)		7.1 µM (inactive)	6.58 µM (inactive)	3.58 µM (inactive)
CC(=O)c1ccc(NCN2C(=O)c3ccccc3C2=O)cc1	> 100 µM (inactive)	> 100 µM (inactive)	> 100 µM (inactive)	> 100 µM (inactive)	> 100 µM (inactive)	> 100 µM (inactive)	> 100 µM (inactive)	> 100 µM (inactive)	> 100 µM (inactive)	> 100 µM (inactive)	> 100 µM (inactive)	> 100 µM (inactive)	36.9 µM (inactive)	> 100 µM (inactive)	> 100 µM (inactive)	> 100 µM (inactive)	> 100 µM (inactive)	> 100 µM (inactive)	> 100 µM (inactive)	
COc1ccc(-c2oc3cc(OC(C)=O)cc(OC(C)=O)c3c(=O)c2OC)cc1	15.5 µM (inactive)	17.9 µM (inactive)	26.5 µM (inactive)		19.6 µM (inactive)	14.2 µM (inactive)			20.2 µM (inactive)	12.4 µM (inactive)	16.1 µM (inactive)	4.04 µM (inactive)	12.1 µM (inactive)	19.7 µM (inactive)	9.77 µM (inactive)	18.3 µM (inactive)	13.9 µM (inactive)	4.19 µM (inactive)		13.5 µM (inactive)
Cc1c2oc3c(C)ccc(C(=O)NC4C(=O)NC(Cc5ccc(O)cc5)C(=O)N5CCCC5C(=O)N(C)CC(=O)N(C)C(C(C)C)C(=O)OC4C)c3nc-2c(C(=O)NC2C(=O)NC(Cc3ccc(O)cc3)C(=O)N3CCCC3C(=O)N(C)CC(=O)N(C)C(C(C)C)C(=O)OC2C)c(N)c1=O (stereo not drawn) (I: TYP[Sar][NMeV] / II: TYP[Sar][NMeV]; ester I:1-I:C, II:1-II:C; linker I:N-II:N via Actinocin(9to1); configuration not given here)	1.43 µM (inactive)	4.11 µM (inactive)	0.392 µM (active)	0.726 µM (active)	17.9 µM (inactive)	0.374 µM (active)		0.406 µM (active)	0.178 µM (active)	0.163 µM (active)	0.33 µM (active)	3.57 µM (inactive)		1.56 µM (inactive)	0.354 µM (active)	> 40.2 µM (inactive)	70.5 µM (inactive)	1.14 µM (inactive)	0.368 µM (active)	
Nc1ccccc1NC(=O)c1ccc(CNC(=O)OCc2cccnc2)cc1 [ENTINOSTAT]	0.805 µM (active)	2.88 µM (inactive)		3.76 µM (inactive)	0.759 µM (active)	1.54 µM (inactive)	0.989 µM (active)	2.16 µM (inactive)	0.557 µM (active)	0.624 µM (active)	0.929 µM (active)		0.659 µM (active)	1.59 µM (inactive)	0.627 µM (active)	1.41 µM (inactive)	1.72 µM (inactive)	0.622 µM (active)	3.35 µM (inactive)	
